Data set [1] concerns A/WSN/33. Also on record: method as in PMID 20178582. The note with it: cited from earlier work.
Data set [2] relates to influenza virus polymerase PB2 subunit. Details: method as in PMID 30102858. The note with it: cited from earlier work.
For data set [3], the system named is HK/68 (H3N2). Nature of the data set: CPE inhibition assay in MDCK cells, H3N2. It is filed as cell-based. As to conditions: Influenza A virus, 72 h.
The nature of data set [4]: in vitro. As to conditions: dog.
Data set [5] has as its system influenza A/Puerto Rico/8/1934 (H1N1). The data set can be described thus: CPE inhibition assay in MDCK cells, H1N1. As to conditions: Influenza A virus, 72 h. It counts as cell-based.
The test system of data set [6] is influenza virus ribonucleoprotein (RNP). Also on record: method as in PMID 12755627. The note with it: cited from earlier work.
For data set [7], the system named is H3N2 influenza virus. Details: method as in PMID 24134208. The note with it: read-out: IC50 for the cytopathic effect (CPE) of H3N2 influenza virus; cited from earlier work.

Each structure is given as a SMILES string. Where only a bound is given, the exact number is not on record here.

With `O=C(O)c1cc(-c2ccc(Br)cc2)nc2ccc(Cl)cc12` [CSV0C019002], the EC50 in data set [1] was 4.27 µM.

For the compound `O=c1oc2cc(O)cc(O)c2c2ccccc12` [Compound D715-2441, 1,3-Dihydroxy-6H-benzo[c]chromen-6-one], in data set [2], the “PB2 cap and m7 GTP binding” value is “prevent PB2 cap and m7 GTP binding in a dose-dependent manner”.

As for `CCC(CC)O[C@@H]1C=C(C(=O)O)C[C@H](N)[C@H]1NC(C)=O` [OC, Oseltamivir carboxylate, reference compound], the figures for the IC50 in data set [3] and in data set [5] were 0.01 µM and 0.95 µM, respectively. The CC50 at 72 h in data set [4] was > 100 µM.

On to `Nc1nc2c(c(=O)[nH]1)[n+](Cc1ccccc1)cn2CCCCO` [RO0794238], for which the IC50 in data set [6] is 45 µM.

On to `O=C(Nc1nc(-c2ccc(O)cc2)c(CCc2ccccc2)s1)c1cc(O)c(O)c(O)c1` [Str1614], for which the IC50 in data set [3] came out at 19.6 ± 0.93 µM; in data set [5], 26.3 ± 8.69 µM. For the same compound, the CC50 at 72 h in data set [4] was > 100 µM.

For the compound `CCCCOc1ccc(-c2csc(Nc3ccc(CCC(=O)O)cc3)n2)cc1Cl` [Str1916], the IC50 in data set [3] came out at 17 ± 7.94 µM; in data set [5], 4.82 ± 3.03 µM. Moreover, the CC50 at 72 h in data set [4] was > 100 µM.

For the compound `O=C(O)c1cc2ccccc2c(Cc2c(O)c(C(=O)O)cc3ccccc23)c1O` [Str3107], the results for the IC50 in data set [3] and in data set [5] were 45.7 ± 3.01 µM and 18.2 ± 4.96 µM, respectively. Further, the CC50 in data set [4] is > 100 µM.

With `O=C(O)c1cccc([C@@H](c2ccc(O)c(C(=O)O)c2)C(Cl)(Cl)Cl)c1` [Str5776], the results for the IC50 in data set [3] and in data set [5] were 2.51 ± 0.12 µM and 3.55 ± 1.23 µM, respectively. Further, the CC50 at 72 h in data set [4] was > 100 µM.

As to `O=C(CCCCC(=O)c1ccccc1C(=O)O)c1ccccc1` [Str6318], the IC50 in data set [3] was 11.2 ± 3.39 µM; in data set [5], 28.6 ± 9.46 µM. For the same compound, the CC50 at 72 h in data set [4] was > 100 µM.

As for `COc1c2oc3c(OC)ccc(C(=O)N[C@@H](Cc4ccccc4)C(=O)O)c3nc-2cc(N)c1=O` [Str7374], the IC50 in data set [3] turned out to be 55.4 ± 27 µM; in data set [5], 31.9 ± 8.15 µM. For the same compound, the CC50 at 72 h in data set [4] is > 100 µM.

On to `O=C(O)[C@H]1C2CCC(CC2)[C@@H]1Nc1nc(-c2c[nH]c3ncc(F)cc23)ncc1F` [VX-787, reference compound], for which the IC50 in data set [3] was 0.09 ± 0.02 µM; in data set [5] it was 0.004 ± 0.001 µM. Moreover, in data set [4], the CC50 was > 100 µM.

For `C[n+]1cn(CCCCC(=O)O)c2nc(CCCCCC(=O)O)nc([O-])c21` [g], the IC50 in data set [7] is 5.3 µM.

Regarding `Cc1nc([O-])c2c(n1)n(CC(=O)c1ccc(O)c(C(=O)O)c1)c[n+]2C` [h], the IC50 in data set [7] is 0.6 µM.

For the compound `Cc1nc([O-])c2c(n1)n(CC(=O)c1ccc(O)c(C(N)=O)c1)c[n+]2C` [i], the IC50 in data set [7] was 7.5 µM.

The values are drawn from PMC8623395, “Virtual Screening and Molecular Dynamics Simulation Study of Influenza Polymerase PB2 Inhibitors” (Molecules, 2021).
